Data on 1 compound can be found in US20100273822A1, “Immediate release compositions and methods for delivering drug formulations using strong acid ion exchange resins” (priority 2009, published 2010).

A short description of the series: Dissolution test USP 31 NF 26 section 711, apparatus 1 baskets at 100 rpm. Type of series: physicochemical. Here is the method: The release enhancing agent, CaCl2, was added to the capsule blend of the first sample while a second formulation was prepared as a control without the use of the release enhancing agent. Six capsules from each formulation were then tested for dissolution.
The test used followed USP 31 NF 26 section 711 using apparatus 1 baskets at 100 rpm (no enzymes). The media selected was simulated gastric (0.1N HCl) at a volume of 900 ml. One capsule was added to each dissolution vessel. At the 60 minute time point the baskets were removed without touching the contents and subsequently placed in dissolution vessels containing 900 ml of simulated intestinal fluid (pH of 6.8). Aliquots were drawn at 15, 30, 45, and 120 minutes. An equivalent amount of media was replaced in the dissolution vessel to account for the volume of the sample removed. The aliquots were filtered and subsequently analyzed using HPLC equipped with a UV detector.
The process that was used to create the resinate, filling the capsules and carrying out the dissolution test in this example was the same as described in Example 1 except that 60 mg of CaCl2 was used instead of 40 mg as in Example 1.

The structures appear in SMILES notation.

Take `[Ca+2].[Cl-].[Cl-]` [CaCl2]: the “effect of adding the release enhancing agent on release rate of dextromethorphan vs control formulation” value is “increased the release rate of dextromethorphan” (Example 1, 40 mg CaCl2 in capsule with dextromethorphan IRP69 resinate) and “increased the release rate of dextromethorphan” (Example 2, 60 mg CaCl2 in capsule with dextromethorphan IRP69 resinate).
